Molecules are shown by their SMILES. Like-named read-outs stand apart in the source and are kept apart here.

One experiment deals with MCF7 cells. The experiment can be described thus: Cell cycle analysis by propidium iodide staining. It counts as cell-based. Particulars: 1 μM, 24 hours. The method, then:
For propidium iodide (PI) staining, treated cells (~1 million per condition) were washed with cold PBS, then fixed in 80% ethanol overnight at −20 °C. After fixing, cells were pelleted, washed with PBS, and reconstituted in 500 μL FxCycle PI / RNAse A staining solution (Thermo Fisher). Cells were stored overnight at 4 °C and analyzed using a BD Fortessa flow cytometer.

Experiment [1] concerns panel of 41 recombinant DUBs. The experiment can be described thus: In vitro DUB profiling (Ubiquigent, Ub-Rho), other DUBs of the panel. It counts as biochemical. The note with it: 1 µM, 15-minute pre-treatment. As to the method: (§1) Compounds were screened using the Ubiquigent Drug Profiler SPT system (www.ubiquigent.com/drug-discovery-services/dubprofiler/). Each of 41 purified DUBs was incubated with compound for 15 minutes, then ubiquitin rhodamine 110 (Ub-Rho) was added and percent inhibition determined based on fluorescence relative to a DMSO control.

The target in the next experiment is USP7 (Homo sapiens, UniProt Q93009). Nature of the experiment: In vitro DUB profiling (Ubiquigent, Ub-Rho), USP7. The note with it: 1 µM, 15-minute pre-treatment. It counts as biochemical. As to the method: as §1
Experiment [2] concerns 60 DUBs in HEK293AD lysate. The experiment can be described thus: In situ DUB profiling: competitive ABPP with Bio-Ub-PA/Bio-Ub-VME and quantitative MS. Particulars: in vitro and activity-based proteomic profiling. It counts as binding, human. As to the method:
(§2) DUB profiling was performed using conditions similar to those in Lawson et al[63]. HEK 293AD cells were lysed using target engagement lysis buffer (50 mM Tris pH 8.0, 150 mM NaCl, 5 mM MgCl2, 0.5 mM EDTA, 0.5% NP-40, 10% glycerol, 1 mM TCEP, protease and phosphatase inhibitors), and the lysate was cleared by centrifugation. Samples were diluted to 2 mg/mL, and 1 mL lysate was incubated with the indicated concentration of XL177A for 5 hours at RT. Excess inhibitor was removed using a 30 K Amicon spin filter, then the resulting lysate was incubated with 1 μM each of Biotin-Ub-PA and Biotin-Ub-VME for 90 minutes at RT. SDS was added to a final concentration of 1.2%, and samples were heated to 80 °C for 5 minutes. After cooling to RT, 1X PBS was added to dilute the final SDS concentration to 0.2%. 100 μL streptavidin agarose slurry was added to each sample, followed by incubation at RT for 3 hours. After streptavidin enrichment, samples were washed vigorously (2×0.2% SDS, 3x PBS, 3x ddH2O). […]
(§3) To remove rapigest, recovered supernatants were acidified with 10% TFA, incubated at 37 °C for 45 minutes, and centrifuged at 14,000 rpm for 15 minutes at 4 °C. […] Eluted peptides were then analyzed by nanoflow LC-MS/MS as described[64] with a NanoAcquity UPLC system (Waters, Milford, MA) interfaced to a QExactive HF mass spectrometer (Thermofisher Scientific, San Jose, CA). […]

Experiment [3] concerns the target T1, 60 DUBs in HEK293AD lysate (Homo sapiens, UniProt Q93009).
T1 construct: endogenous in cells; host or cells: HEK 293AD lysate
The description is as above. It counts as binding. The note with it: HEK293 crude cell extract, 5 hours pre-incubation. As to the method: as §2, §3

Experiment [4] has as its system Ewing Sarcoma, AML, multiple myeloma and rhabdoid cell lines. The experiment can be described thus: Cell viability (CellTiter-Glo) in individual cell line panels. It counts as cell-based. As to the method: Cells were plated in 384-well culture-treated plates and allowed to settle overnight. After drug treament and appropriate incubation time, cell viability was assessed using the CellTiter-Glo Luminescent Cell Viability Assay (Promega). Luminescence was read on a Fluostar Omega Reader (BMG Labtech).

Another experiment relates to HDM2-p53 signaling axis. The experiment can be described thus: Whole cell lysate Western blots of MCF7 cells (HDM2, p53, p21). It counts as cell-based. (In western blotting, separated proteins are transferred to a membrane and probed.)
For a further experiment, the target named is T2, full-length USP7 (Homo sapiens, UniProt Q93009).
T2 construct: The constructs encoding USP7 full length (amino acids 1–1102) and catalytic domain (208–560); inferred from Ni-NTA purification; made in house; host or cells: E. coli BL21 (DE3)
Nature of the experiment: Ub-AMC enzymatic assay, full-length USP7, 6 h pre-incubation. It counts as biochemical. As to the method:
Full length USP7 was tested for its activity in Ubiquitin-AMC assay in presence or absence of inhibitors. USP7 (5 nM) was pre-incubated for 6 hours at room temperature with different concentrations of inhibitors or DMSO as a control in 50 mM HEPES pH 7.5, 0.5 mM EDTA, 11 uM ovalbumin, and 5 mM DTT. Ubiquitin-AMC (Boston Biochem) was then added to a final concentration of 500 nM. The initial rate of the reaction was measured by collecting fluorescence data at one minute intervals over 30-minute period using a Clariostar fluorescence plate reader at excitation and emission wavelength of 345 and 445 nm respectively. The calculated initial rate values were plotted against inhibitor concentrations to determine IC50s. All the experimental data were plotted using Prism GraphPad. All assays for each compound were performed at least twice for each compound.

T2 sequence (Q93009 whole entry, the tested form may be a part): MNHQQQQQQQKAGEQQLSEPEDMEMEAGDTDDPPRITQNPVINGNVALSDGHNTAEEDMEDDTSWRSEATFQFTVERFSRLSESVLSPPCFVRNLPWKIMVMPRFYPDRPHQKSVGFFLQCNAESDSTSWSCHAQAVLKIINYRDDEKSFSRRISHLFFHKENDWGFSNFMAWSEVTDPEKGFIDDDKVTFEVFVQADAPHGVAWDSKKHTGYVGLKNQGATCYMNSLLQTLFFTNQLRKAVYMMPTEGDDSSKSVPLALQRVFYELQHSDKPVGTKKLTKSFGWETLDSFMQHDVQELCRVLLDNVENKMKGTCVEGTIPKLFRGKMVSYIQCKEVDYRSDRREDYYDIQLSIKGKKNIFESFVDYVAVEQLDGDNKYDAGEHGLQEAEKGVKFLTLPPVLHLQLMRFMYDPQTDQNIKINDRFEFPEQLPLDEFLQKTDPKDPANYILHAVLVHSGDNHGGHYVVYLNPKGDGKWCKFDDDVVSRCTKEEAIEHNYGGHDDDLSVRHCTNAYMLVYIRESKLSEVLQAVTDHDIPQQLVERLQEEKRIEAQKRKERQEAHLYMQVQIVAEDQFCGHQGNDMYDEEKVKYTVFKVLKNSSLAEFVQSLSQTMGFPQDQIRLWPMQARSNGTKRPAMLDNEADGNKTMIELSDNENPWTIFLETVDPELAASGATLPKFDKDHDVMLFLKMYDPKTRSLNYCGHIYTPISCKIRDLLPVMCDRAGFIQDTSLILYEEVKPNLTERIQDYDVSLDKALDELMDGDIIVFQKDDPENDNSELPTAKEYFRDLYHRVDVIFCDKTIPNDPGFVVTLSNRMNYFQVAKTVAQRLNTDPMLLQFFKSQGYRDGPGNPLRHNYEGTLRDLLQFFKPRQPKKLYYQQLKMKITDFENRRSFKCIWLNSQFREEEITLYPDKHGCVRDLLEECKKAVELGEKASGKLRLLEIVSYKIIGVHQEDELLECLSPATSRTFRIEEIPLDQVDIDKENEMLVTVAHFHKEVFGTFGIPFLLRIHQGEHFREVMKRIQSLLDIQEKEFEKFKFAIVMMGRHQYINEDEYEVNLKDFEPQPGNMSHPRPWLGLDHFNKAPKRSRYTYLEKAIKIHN
Chain of USP7 (Q93009 whole entry): as the sequence (Q93009 whole entry, the tested form may be a part) above
T1 sequence (Q93009 whole entry): as the sequence (Q93009 whole entry, the tested form may be a part) above

In the case of `CN1CCN(CCC(=O)Nc2ccc3c(=O)n(CC4(O)CCN(C(=O)[C@@H](CCCNC(=O)c5ccc6c(Cl)c7c(nc6c5)CCCC7)Cc5ccccc5)CC4)cnc3c2)CC1` [XL177A], in the experiment on MCF7 cells, the cell cycle effect result is listed as “complete G1 arrest”. Besides, the “activity against any other DUBs” value in experiment [1] is listed as “did not exhibit significant activity”. The USP7 enzymatic activity entry on USP7 is given as “completely inhibited”. Besides, the “selectivity for USP7 over closely related DUBs” value in experiment [2] is greater than 10 fold. In addition, the “USP7 labeling by DUB ABPs” value in experiment [3] is “significantly blocked USP7 labeling”. In addition, in experiment [4], the “TP53-WT cell lines sensitive” value was 9 out of 10 and the “TP53-mutant cell lines sensitive” value is 1 out of 17. Moreover, in the experiment with HDM2-p53 signaling axis, the “p53 and p21 protein levels” value was “increases in p53 and downstream p21 protein levels”; the “time to degradation of HDM2” value is no more than 2 h. Also, on full-length USP7 (read-out: potency as irreversible inhibitor of USP7), the IC50 amounted to 0.34 nM.

Take `CN1CCN(CCC(=O)Nc2ccc3c(=O)n(CC4(O)CCN(C(=O)[C@H](CCCNC(=O)c5ccc6c(Cl)c7c(nc6c5)CCCC7)Cc5ccccc5)CC4)cnc3c2)CC1` [XL177B]: the “less potent than XL177A in the cell lines tested” value in experiment [4] is reported as ~ 100 fold. The “effects on HDM2-p53 signaling and cell cycle” value in the experiment on HDM2-p53 signaling axis (negative control) is “did not exert any of the same effects except at 10 μM”. At full-length USP7 (Ub-AMC, 6-hour pre-treatment, read-out: IC50), the IC50 stood at 340 nM.
